Assay results reported in patent US7067476B2, “Peptide derivative, and pharmaceutically acceptable salt thereof, process for producing the same, and use thereof” (priority 2001, dated 2006).

Experiments:
[1] = target: Lys-gingipain (KGP) (Porphyromonas gingivalis, UniProt B2RLK2); test: Inhibitory activity against Lys-gingipain (KGP), substrate Cbz-His-Glu-Lys-MCA; format: biochemical; conditions: read-out: Enzyme inhibitory activity (%) KGP
Experimental: (§1) The inhibitory activity against Lys-gingipain (KGP) was measured by the method of Abe et al. (Journal Biochemistry, 1998, Vol. 123, 305–312) using Cbz-His-Glu-Lys-MCA as a substrate. The inhibitory activity against Arg-gingipain (RGP) was measured by the method of Kadowaki et al. (Journal Biological Chemistry, 1994, Vol. 269, 21371–21378) using Cbz-Phe-Arg-MCA as a substrate. More specifically, the measurements were carried out in the following manner: 100 μl of 50 mM L-cystein, 200 μl of a 0.1 M sodium phosphate buffer solution (pH 7.5), 20 μl of 12.3 nM KGP or RGP solution containing 0.05% “Brij35” (a tradename, product of Aldrich, polyoxyethylene(23) lauryl ether), 80 μl of distilled water and 100 μl of a dimethyl sulfoxide solution of a compound according to the invention were mixed and preincubated at 37° C. for 5 minutes. Thereafter, 500 μl of a 0.1% dimethyl sulfoxide solution containing 20 μM Cbz-His-Glu-Lys-MCA (for KGP) or Cbz-Phe-Arg-MCA (for RGP) was added, followed by incubation at 40° C. for 10 minutes. An acetic acid buffer solution (pH 5.0) containing 10 mM iodoacetamide was then added to stop the enzyme reaction. The fluorescence intensity (F) at 460 nm upon excitation at 380 nm was measured.

[2] = tested on: Arg-gingipain (RGP); test: Inhibitory activity against Arg-gingipain (RGP), substrate Cbz-Phe-Arg-MCA; format: biochemical, Porphyromonas gingivalis
Experimental: as §1

With `Cl.NCCCC[C@H](NC(=O)[C@H](CCC(=O)O)NC(=O)OCc1ccccc1)C(=O)C(=O)N[C@@H](CCCNC(N)=N[N+](=O)[O-])C(=O)C(=O)NCCc1ccccc1` [Example 3] as the molecule, how does the inhibition at 1 µM [1] read?
Its inhibition at 1 µM is 99.9%.

What about the inhibition at 10 µM [1] of the same molecule?
Its inhibition at 10 µM is 99.9%.

And the inhibition at 100 µM [1]?
Its inhibition at 100 µM is 100%.

And the “Enzyme inhibitory activity (%) RGP” value ([2]; concentration 10^−4 mol/l)?
Its value is 99.4%.

And the “Enzyme inhibitory activity (%) RGP” value ([2]; concentration 10^−5 mol/l)?
The value was 96.8%.

And the “Enzyme inhibitory activity (%) RGP” value ([2]; concentration 10^−6 mol/l)?
The value was 81.1%.
